The source of these data is US20240025907A1, “QUINAZOLINE PAN-KRas INHIBITORS” (Mirati Therapeutics, Inc., priority 2022, published 2024).

In general, inhibition refers to the change of the read-out against control, counted positive when it falls. For orientation: IC50 means the concentration at which inhibition is half-maximal.

The structures appear in SMILES notation.

Holding throughout (assay type): cell-based
Experiment [1] concerns KRas-mediated Phosphorylation of ERK in H727 cells. Put plainly: Cisbio HTRF pERK assay, H727 cells. Conditions: for inhibition at 0.1 µM: Homo sapiens, NCI-H727, single point at 100 nM; for IC50: 3 hrs compound, read-out: Inhibition (HTRF IC50 nM) of KRas-mediated Phosphorylation of ERK, H727. (In general: In TR-FRET formats the signal depends on donor and acceptor labels being close together.)

Experiment [2] relates to KRas-mediated Phosphorylation of ERK in AsPC-1 cells. Description: Cisbio HTRF pERK assay, AsPC-1 cells. Conditions: for inhibition at 0.1 µM: Homo sapiens, ASPC1, single point at 100 nM; for IC50: 3 hrs compound, read-out: Inhibition (HTRF IC50 nM) of KRas-mediated Phosphorylation of ERK, AsPC-1.
For experiment [3], the system named is KRas-mediated Phosphorylation of ERK in A549 cells. Description: Cisbio HTRF pERK assay, A549 cells. To be noted: for inhibition at 0.1 µM: Homo sapiens, A549, A549 cells, single point at 100 nM; for IC50: A549 cells, 3 hrs compound, read-out: Inhibition (HTRF IC50 nM) of KRas-mediated Phosphorylation of ERK, A549.
The subject of experiment [4] is KRas-mediated Phosphorylation of ERK in HCT116 cells. Description: Cisbio HTRF pERK assay, HCT116 cells. Conditions: Homo sapiens, HCT-116, HCT116 cells, single point at 100 nM.
Experiment [5] deals with KRas-mediated Phosphorylation of ERK in H460 cells. Put plainly: Cisbio HTRF pERK assay, H460 cells. To be noted: Homo sapiens, NCI-H460, H460 cells, single point at 100 nM.
Experiment [6] has as its system KRas-mediated Phosphorylation of ERK in H358 cells. Put plainly: Cisbio HTRF pERK assay, H358 cells. To be noted: for inhibition at 0.1 µM: Homo sapiens, NCI-H358, H358 cells, single point at 100 nM; for IC50: H358 cells, 3 hrs compound, read-out: Inhibition (HTRF IC50 nM) of KRas-mediated Phosphorylation of ERK, H358.

`CCc1c(F)ccc2cc(O)cc(-c3c(F)cc4c(N5CCC[C@@](C)(O)C5)nc(OCC5(CN(C)C)CC5)nc4c3F)c12` [Example 11, (R)-1-(2-((1-((dimethylamino)methyl)cyclopropyl)methoxy)-7-((R)-8-ethyl-7-fluoro-3-hydroxynaphthalen-1-yl)-6,8-difluoroquinazolin-4-yl)-3-methylpiperidin-3-ol]: the inhibition at 0.1 µM in experiment [1] is 49%; in experiment [2], 91%.
Take `CCc1c(F)ccc2cc(O)cc(-c3c(F)cc4c(N5CCCC6(CCO6)C5)nc(OCC5(CN(C)C)CC5)nc4c3F)c12` (stereo not drawn) [Example 82, 4-(2-((1-((dimethylamino)methyl)cyclopropyl)methoxy)-6,8-difluoro-4-(1-oxa-6-azaspiro[3.5]nonan-6-yl)quinazolin-7-yl)-5-ethyl-6-fluoronaphthalen-2-ol]: the inhibition at 0.1 µM in experiment [3] is 33%; in experiment [1], 34%; in experiment [4], 24%; in experiment [2], 72%; in experiment [5], 63%; in experiment [6] it was 80%.
As to `N#Cc1c(N)sc2c(F)ccc(-c3c(Cl)cc4c(N5CCCn6nnc(Cl)c6C5)nc(OC[C@@]56CCCN5C[C@H](F)C6)nc4c3F)c12` (single isomer, unassigned) [Example 196], the concentration for half-maximal inhibition (IC50) in experiment [3] is 2420 nM; in experiment [1], 2820 nM; in experiment [2] it was 531 nM; in experiment [6] it was 472 nM.
For `CCc1c(F)ccc2cc(O)cc(-c3c(F)cc4c(N5CCCn6nc(C(=O)N7CCN(C)CC7)cc6C5)nc(OC[C@@]56CCCN5C[C@H](F)C6)nc4c3F)c12` [Example 76, (5-(7-(8-ethyl-7-fluoro-3-hydroxynaphthalen-1-yl)-6,8-difluoro-2-(((2R,7aS)-2-fluorohexahydro-1H-pyrrolizin-7a-yl)methoxy)quinazolin-4-yl)-5,6,7,8-tetrahydro-4H-pyrazolo[1,5-a][1,4]diazepin-2-yl)(4-methylpiperazin-1-yl)methanone], the inhibition at 0.1 µM in experiment [3] was found to be 42%; in experiment [1], 43%; in experiment [4], 16%; in experiment [2], 90%; in experiment [5], 31%; in experiment [6], 90%.
Take `CCc1c(F)ccc2cc(O)cc(-c3ccc4c(N5CCCn6nc(C(=O)N7CCOCC7)c(Cl)c6C5)nc(OC[C@@]56CCCN5C[C@H](F)C6)nc4c3F)c12` [Example 73, (3-chloro-5-(7-(8-ethyl-7-fluoro-3-hydroxynaphthalen-1-yl)-8-fluoro-2-(((2R,7aS)-2-fluorohexahydro-1H-pyrrolizin-7a-yl)methoxy)quinazolin-4-yl)-5,6,7,8-tetrahydro-4H-pyrazolo[1,5-a][1,4]diazepin-2-yl)(morpholino)methanone]: the inhibition at 0.1 µM stood at 71% in experiment [3]; 71% in experiment [1]; 48% in experiment [4]; 97% in experiment [2]; 97% in experiment [6].
Consider `CCc1c(F)ccc2cc(O)cc(-c3c(F)cc4c(N5CCCn6nc(C(=O)NC)c(C)c6C5)nc(OC[C@@]56CCCN5C[C@H](F)C6)nc4c3F)c12` [Example 81, 5-(7-(8-ethyl-7-fluoro-3-hydroxynaphthalen-1-yl)-6,8-difluoro-2-(((2R,7aS)-2-fluorohexahydro-1H-pyrrolizin-7a-yl)methoxy)quinazolin-4-yl)-N,3-dimethyl-5,6,7,8-tetrahydro-4H-pyrazolo[1,5-a][1,4]diazepine-2-carboxamide], for which the inhibition at 0.1 µM in experiment [3] was 62%; in experiment [4], 32%; in experiment [5], 26%; in experiment [6], 98%.
In the case of `N#Cc1c(N)sc2c(F)ccc(-c3c(Cl)cc4c(N5CCCn6nnc(Cl)c6C5)nc(OC[C@@]56CCCN5C[C@H](F)C6)nc4c3F)c12` (single isomer, unassigned) [Example 197], the IC50 was found to be 10 nM in experiment [3], 12 nM in experiment [1], 2 nM in experiment [2] and 3 nM in experiment [6].
As to `CCc1c(F)ccc2cc(O)cc(C3Cc4nc(OC[C@@]56CCCN5C[C@H](F)C6)nc(N5CCCC6(C5)NC(=O)NC6=O)c4CO3)c12` (stereo partly drawn) [Example 87, 7-(7-(8-ethyl-7-fluoro-3-hydroxynaphthalen-1-yl)-2-(((2R,7aS)-2-fluorotetrahydro-1H-pyrrolizin-7a(5H)-yl)methoxy)-7,8-dihydro-5H-pyrano[4,3-d]pyrimidin-4-yl)-1,3,7-triazaspiro[4.5]decane-2,4-dione], the inhibition at 0.1 µM is 16% in experiment [3], -5% in experiment [4], -8% in experiment [5] and 30% in experiment [6].
For the compound `O=S1(=O)NCC2(CCCN(c3nc(OC[C@@]45CCCN4C[C@H](F)C5)nc4c(F)c(-c5cc(O)cc6ccc(F)c(Cl)c56)ccc34)C2)N1` (stereo partly drawn) [Example 72, 7-(7-(8-chloro-7-fluoro-3-hydroxynaphthalen-1-yl)-8-fluoro-2-(((2R,7aS)-2-fluorohexahydro-1H-pyrrolizin-7a-yl)methoxy)quinazolin-4-yl)-2-thia-1,3,7-triazaspiro[4.5]decane 2,2-dioxide], the inhibition at 0.1 µM in experiment [3] was determined as 76%; in experiment [4], 69%; in experiment [5], 87%; in experiment [6] it was 98%.
For the compound `CCc1c(F)ccc2cc(O)cc(-c3c(F)cc4c(N5CCCC6(CNS(=O)(=O)N6)C5)nc(OCC5(CN(C)C)CC5)nc4c3F)c12` (stereo not drawn) [Example 50, 7-(2-((1-((dimethylamino)methyl)cyclopropyl)methoxy)-7-(8-ethyl-7-fluoro-3-hydroxynaphthalen-1-yl)-6,8-difluoroquinazolin-4-yl)-2-thia-1,3,7-triazaspiro[4.5]decane 2,2-dioxide], the inhibition at 0.1 µM in experiment [3] is -17%; in experiment [4], -3%; in experiment [5], 38%; in experiment [6] it was 3%.
Turning to `CCc1c(F)ccc2cc(O)cc(-c3ccc4c(N5CCCn6nc(C(=O)N(C)C)c(Cl)c6C5)nc(OC[C@@]56CCCN5C[C@H](F)C6)nc4c3F)c12` [Example 74, 3-chloro-5-(7-(8-ethyl-7-fluoro-3-hydroxynaphthalen-1-yl)-8-fluoro-2-(((2R,7aS)-2-fluorohexahydro-1H-pyrrolizin-7a-yl)methoxy)quinazolin-4-yl)-N,N-dimethyl-5,6,7,8-tetrahydro-4H-pyrazolo[1,5-a][1,4]diazepine-2-carboxamide], the inhibition at 0.1 µM in experiment [3] worked out at 72%; in experiment [1], 78%; in experiment [4] it was 38%; in experiment [2], 99%; in experiment [6], 98%.
`CCc1c(F)ccc2cc(O)cc(-c3ccc4c(N5CCCn6nc(C(=O)N(C)C)c(C)c6C5)nc(OC[C@@]56CCCN5C[C@H](F)C6)nc4c3F)c12` [Example 75, 5-(7-(8-ethyl-7-fluoro-3-hydroxynaphthalen-1-yl)-8-fluoro-2-(((2R,7aS)-2-fluorohexahydro-1H-pyrrolizin-7a-yl)methoxy)quinazolin-4-yl)-N,N,3-trimethyl-5,6,7,8-tetrahydro-4H-pyrazolo[1,5-a][1,4]diazepine-2-carboxamide]: the inhibition at 0.1 µM in experiment [3] is 79%; in experiment [1], 73%; in experiment [4], 29%; in experiment [2], 95%; in experiment [6] it was 98%.
As for `CCc1c(F)ccc2cc(O)cc(C3Cc4nc(OC[C@@]56CCCN5C[C@H](F)C6)nc(N5C[C@@H]6C[C@H](C5)[C@H](O)C6)c4CO3)c12` (stereo partly drawn) [Example 86, (1R,5R,6R)-3-(7-(8-ethyl-7-fluoro-3-hydroxynaphthalen-1-yl)-2-(((2R,7aS)-2-fluorotetrahydro-1H-pyrrolizin-7a(5H)-yl)methoxy)-7,8-dihydro-5H-pyrano[4,3-d]pyrimidin-4-yl)-3-azabicyclo[3.2.1]octan-6-ol], the inhibition at 0.1 µM is 0% in experiment [3], -12% in experiment [4], -1% in experiment [5] and -14% in experiment [6].
As for `C[C@@]1(O)COCCN(c2nc(OC[C@@]34CCCN3C[C@H](F)C4)nc3c(F)c(-c4ccc(F)c5sc(N)c(C#N)c45)c(Cl)cc23)C1` (atropisomer, axis not shown; (aS)) [Example 193, 2-amino-4-((S)-6-chloro-8-fluoro-2-(((2R,7aS)-2-fluorotetrahydro-1H-pyrrolizin-7a(5H)-yl)methoxy)-4-((S)-6-hydroxy-6-methyl-1,4-oxazepan-4-yl)quinazolin-7-yl)-7-fluorobenzo[b]thiophene-3-carbonitrile], the IC50 was 686 nM in experiment [1] and 414 nM in experiment [2].
Consider `CCc1c(F)ccc2cc(O)cc(-c3c(F)cc4c(N5CCOCC(C)(O)C5)nc(OCC5(CN(C)C)CC5)nc4c3F)c12` (stereo not drawn) [Example 56, 4-(2-((1-((dimethylamino)methyl)cyclopropyl)methoxy)-7-(8-ethyl-7-fluoro-3-hydroxynaphthalen-1-yl)-6,8-difluoroquinazolin-4-yl)-6-methyl-1,4-oxazepan-6-ol], for which the inhibition at 0.1 µM in experiment [3] is 47%; in experiment [4], 51%; in experiment [5], 86%; in experiment [6], 87%.
